Measurements published in ChEMBL document CHEMBL1133133, “Difluoroketones as inhibitors of matrix metalloprotease-13” (Bioorg Med Chem Lett, 2000).

Target: Collagenase 3 (Homo sapiens, UniProt P45452)
Test: Inhibition of Matrix metalloprotease-13

SMILES	IC50 [µM]
C=CC(CCc1ccccc1)CC(O)C(F)(F)c1ccc(Cc2ccccc2)cc1 (centres undefined)	27
O=C(CCCCc1ccccc1)C(F)(F)c1ccc(Cc2ccccc2)cc1	> 30
C=CC(CCc1ccccc1)CC(=O)C(F)(F)c1ccc(Cc2ccccc2)cc1 (centres undefined)	0.29
C=CCCC(=O)C(F)(F)c1ccc(Cc2ccccc2)cc1	> 30
CNC(=O)C(NC(=O)C(CCc1ccccc1)CC(O)C(F)(F)c1ccc(Cc2ccccc2)cc1)C(C)(C)C (centres undefined)	> 30
CNC(=O)C(NC(=O)CCC(=O)C(F)(F)c1ccc(Cc2ccccc2)cc1)C(C)(C)C (centres undefined)	12

The remaining lines, values ahead:

IC50 [µM]	SMILES
6.1	O=C(C(CCc1ccccc1)CC(=O)C(F)(F)c1ccc(Cc2ccccc2)cc1)N1CCCCC1 (centres undefined)
5.1	CNC(=O)C(NC(=O)C(CCc1ccccc1)CC(=O)C(F)(F)c1ccc(Cc2ccccc2)cc1)C(C)(C)C (centres undefined)
0.014	CNC(=O)[C@@H](NC(=O)C(CCc1ccccc1)CP(=O)(O)Cc1ccc(Cc2ccccc2)cc1)C(C)(C)C (some centres undefined)
